Patent publication US5310930A, “Benzofuranylimidazole derivatives, a process for their preparation and therapeutical compositions containing the same” (priority 1991, dated 1994)
Like-named read-outs stand apart in the source and are kept apart here.

Experiments:
[1] = Indian J. Chem. 1979, 18B, 254; cited from earlier work
[2] = Indian J. Chem. 1979, 18B, 254; cited from earlier work; remark: listed apart in the source
alpha1-adrenoceptor = experiment: Displacement of 3H-prazosin (0.5 nM) (alpha1-adrenoceptor affinity); type: binding; conditions: rat cerebral cortex, mean of 10 experiments
Description: (§1) Initial biological evaluation of alpha1 - and alpha2 -adrenoceptor and imidazoline preferring receptor (IR) affinities and selectivities in homogenized rat cerebral cortex were assessed by determining the Ki values of the compounds to displace ^3 H-prazosin ^3 H-clonidine as well as ^3 H-idazoxan in the presence of (-)-adrenaline according to the method of Olmos et al. (J. Neurochem. 1991, 57:1811-1813).
(§2) This in vitro model is particularly useful as an initial screening for studying the affinity and the selectivity of these compounds on the imidazoline receptors.

[3] = biological target: imidazoline preferring receptor (IR); experiment: Displacement of 3H-idazoxan (4 nM) in the presence of (-)-adrenaline (IR affinity); type: binding, rat; conditions: for Ki: 3H-idazoxan (4 nM), (-)-adrenaline (10^-6 M), rat cerebral cortex, mean of 10 experiments; for Selectivity IR/α1: selectivity ratio for IR/alpha1 from Ki values; for Selectivity IR/α2: selectivity ratio for IR/alpha2 from Ki values
Description: as §1, §2

alpha2-adrenoceptor = biological target: T1, alpha2-adrenoceptor (Rattus norvegicus, UniProt P22909); experiment: Displacement of 3H-clonidine (2 nM) (alpha2-adrenoceptor affinity); type: binding
T1 sequence (P22909 1-465): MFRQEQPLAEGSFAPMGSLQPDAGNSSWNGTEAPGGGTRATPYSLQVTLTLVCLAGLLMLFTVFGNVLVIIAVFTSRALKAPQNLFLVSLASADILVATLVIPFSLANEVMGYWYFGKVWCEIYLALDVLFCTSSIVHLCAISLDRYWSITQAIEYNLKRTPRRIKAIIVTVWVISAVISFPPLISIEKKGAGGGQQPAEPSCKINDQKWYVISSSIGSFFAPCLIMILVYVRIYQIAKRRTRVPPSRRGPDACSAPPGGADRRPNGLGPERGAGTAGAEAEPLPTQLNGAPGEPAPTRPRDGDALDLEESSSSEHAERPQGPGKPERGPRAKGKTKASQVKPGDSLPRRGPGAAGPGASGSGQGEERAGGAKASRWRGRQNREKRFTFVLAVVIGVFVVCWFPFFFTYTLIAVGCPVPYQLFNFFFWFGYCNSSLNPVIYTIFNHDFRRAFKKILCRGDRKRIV

rats = experiment: In vivo feeding behavior in rats (cumulative food intake after i.p. administration); set-up: species or system rat; conditions: for hyperphagic potency relative to idazoxan: 25 mg/kg i.p. versus idazoxan 10 mg/kg i.p.; for acute hyperphagic effect respect to the control group / cumulative food intake: rats; for acute hyperphagic effect respect to the control group: 1-4 h, P<0.05; for cumulative food intake: N=5
From the text: At present, certain compounds of the invention (Examples 1,2 and 3) have shown an in vivo CNS functional activity, such as: feeding behavior in rats.

[4] = 3H-clonidine (2 nM), rat cerebral cortex, mean of 10 experiments, read-out: Affinity (Ki) Alpha2

Ki (alpha1-adrenoceptor) [µM]	Ki [3] [µM]	Selectivity IR/α1 [3]	Selectivity IR/α2 [3]	Ki (alpha2-adrenoceptor; [4]) [µM]	SMILES	hyperphagic potency relative to idazoxan (rats)	acute hyperphagic effect respect to the control group (rats; 25 mg/kg i.p.)	other results
					c1ccc2oc(C3=NCCN3)cc2c1			antibacterial activity [1]: without showing any noteworthy activity; antifungal activity [2]: without showing any noteworthy activity
26.2	0.015	1740	4140	62.1	Cl.Cn1ccnc1-c1cc2ccccc2o1 [Example 2, 1-methyl-2-(benzofuran-2-yl)imidazole hydrochloride]	lower in potency than those induced by idazoxan	7-10 fold	potency for the I2-imidazoline receptors relative to idazoxan ([3]; data derived from binding studies): equally as potent as idazoxan; selectivity relative to idazoxan ([3]; data derived from binding studies (Table 1)): much more selective; cumulative food intake (rats; 25 mg/kg i.p., 1 h): 2.7 ± 1.5 g/kg body weight; cumulative food intake (rats; 25 mg/kg i.p., 2 h): 3.0 ± 1.5 g/kg body weight; cumulative food intake (rats; 25 mg/kg i.p., 4 h): 3.6 ± 1.4 g/kg body weight
17.8	0.151	118	372	56.1	COc1ccc2cc(-c3ncc[nH]3)oc2c1.Cl [Example 3, 2-(6-methoxybenzofuran-2-yl)imidazole hydrochloride]	lower in potency than those induced by idazoxan	7-10 fold	
33.3	0.117	284	584	68.4	Brc1ccc2oc(-c3ncc[nH]3)cc2c1.Cl [Example 6, 2-(5-bromobenzofuran-2-yl)imidazole hydrochloride]			
4.41	0.163	27	605	98.7	COc1ccc2oc(-c3ncc[nH]3)cc2c1.Cl [Example 7, 2-(5-methoxybenzofuran-2-yl)imidazole hydrochloride]			
22.6	0.123	184	580	71.3	CCn1ccnc1-c1cc2ccc(OC)cc2o1.Cl [Example 9, 1-ethyl-2-(6-methoxybenzofuran-2-yl)imidazole hydrochloride]			
0.091	0.014				c1ccc2c(c1)OCC(C1=NCCN1)O2 (stereo not drawn) [Idazoxan, reference compound]			cumulative food intake (rats; 10 mg/kg i.p., 1 h): 3.7 ± 1.2 g/kg body weight; cumulative food intake (rats; 10 mg/kg i.p., 2 h): 5.6 ± 2.1 g/kg body weight; cumulative food intake (rats; 10 mg/kg i.p., 4 h): 7.4 ± 2.3 g/kg body weight

SMILES	Ki (alpha1-adrenoceptor) [µM]	Ki [3] [µM]	Selectivity IR/α1 [3]	Selectivity IR/α2 [3]	Ki (alpha2-adrenoceptor; [4]) [µM]	hyperphagic potency relative to idazoxan (rats)	acute hyperphagic effect respect to the control group (rats; 25 mg/kg i.p.)	other results
Cl.c1ccc2oc(-c3ncc[nH]3)cc2c1 [Example 1, 2-(benzofuran-2-yl)imidazole hydrochloride]	36.5	0.089	410	1 125		lower in potency than those induced by idazoxan	7-10 fold	Ki (alpha2-adrenoceptor): 100 µM; cumulative food intake (rats; 25 mg/kg i.p., 1 h): 3.0 ± 2.0 g/kg body weight; cumulative food intake (rats; 25 mg/kg i.p., 2 h): 4.0 ± 2.1 g/kg body weight; cumulative food intake (rats; 25 mg/kg i.p., 4 h): 4.8 ± 2.0 g/kg body weight
COC1(C2=NCCN2)COc2ccccc2O1 (stereo not drawn) [RX 821002, reference compound]		44.9		0.00002	0.0007			
